# Source: US10913751B2, “1,3-diazo-4-oxa-[3.3.1]-bicyclic derivatives, process for their manufacture and their use as a medicament, in particular for treating diabetes” (UNIVERSITA' DI PISA, priority 2017, dated 2021)
# What was measured:
# GLP-1 receptor = experiment: ELISA assay of secreted GLP-1 forms (mSTC-1 GLP-1 sec CRC); type: cell-based; settings: mSTC-1 cells, GLP-1 secretion, concentration-response curve, ELISA readout, FIG. 1; read-out: action as a GLP-1 receptor agonist (mSTC-1 GLP-1 sec CRC)
# Experimental: The biological activity of the synthesised compounds was measured with an ELISA assay.
# The biological activity of the compound (5S*,9R*)-9-phenyl-3-phenylacetyl-4-oxa-1,3-diazabicyclo[3.3.1]non-6-ene (Ib) as a GLP-1 receptor agonist was measured via an ELISA assay specifically modified in order to identify the forms of GLP-1 secreted.
EC50 (GLP-1 receptor) [µM],melting point [°C],Structure (SMILES)
11,156 to 159,"O=C(Cc1ccccc1)N1CN2CC=C[C@H](O1)[C@H]2c1ccccc1 (relative stereo) [Ib, (5S*,9R*)-9-phenyl-3-phenylacetyl-4-oxa-1,3-diazabicyclo[3.3.1]non-6-ene]"
–,68 to 70,"CC[C@@H]1[C@@H]2C=CCN1CN(C(=O)Cc1ccccc1)O2 (relative stereo) [If, (5S*,9R*)-9-ethyl-3-phenylacetyl-4-oxa-1,3-diazabicyclo[3.3.1]non-6-ene]"
